Data taken from article PMC11318018 (ACS Medicinal Chemistry Letters, 2024).

Target: HiBiT-RR BRD4 (Homo sapiens, UniProt O60885)
Experiment: Kinetic degradation of HiBiT-RR BRD4 CRISPR knock-in in HEK293 cells
Type: cell-based

- DC50 or Dmax difference HiBiT-KK vs HiBiT-RR BRD4: no significant DC50 or Dmax difference
Compound: Cc1ncsc1-c1ccc(CNC(=O)[C@@H]2C[C@@H](O)CN2C(=O)[C@@H](NC(=O)COCCOCCOCCNC(=O)C[C@@H]2N=C(c3ccc(Cl)cc3)c3c(sc(C)c3C)-n3c(C)nnc32)C(C)(C)C)cc1 [MZ1]
